The values below come from patent US20230011571A1, “SMALL MOLECULE FURIN INHIBITORS FOR TREATING INFECTIOUS DISEASES” (BP Asset V, Inc., priority 2019, published 2023).

Common to all, as to type: cell-based
In one assay the test system is Marburg virus (MARV). The experiment in a line: organism not typed. The following applies: Vero, 72 h, read-out: Percent viral inhibition MARV.
Another assay has as its system dengue virus (DENV). Nature of the assay: microbe, parasite or virus in culture. Particulars: Dengue virus, Vero, 120 h, read-out: Percent viral inhibition DENY.
Assay [1] relates to Chikungunya virus (CHIKV). The experiment in a line: microbe, parasite or virus in culture. The following applies: Chikungunya virus, Vero, 48 h, read-out: Percent viral inhibition CHKV.

Take `CN1CCN(c2ccc(Oc3cc(CN4CC[C@@H]5[C@H](CC4)[C@H]5C(=O)O)cc(-c4cc(Cl)cc(Cl)c4)n3)cn2)CC1` [Example 136, (1R,7S,8r)-4-((2-(3,5-dichlorophenyl)-6-((6-(4-methylpiperazin-1-yl)pyridin-3-yl)oxy)pyridin-4-yl)methyl)-4-azabicyclo[5.1.0]octane-8-carboxylic acid]: the inhibition at 1 µM stood at 57.8% with Marburg virus (MARV), 18% with dengue virus (DENV) and 39.8% in assay [1].
Turning to `CN1C[C@@H]2C[C@H]1CN2c1ccc(Oc2cc(CN3CCC(CC(=O)O)CC3)cc(-c3cc(Cl)cc(Cl)c3)n2)nn1` [Example 357, 2-(1-((2-(3,5-dichlorophenyl)-6-((6-((1S,4S)-5-methyl-2,5-diazabicyclo[2.2.1]heptan-2-yl)pyridazin-3-yl)oxy)pyridin-4-yl)methyl)piperidin-4-yl)acetic acid], the inhibition at 1 µM in the assay on Marburg virus (MARV) is 100%; in the assay with dengue virus (DENV), 61.2%; in assay [1], 38.6%.
For the compound `CN1CCN(c2ncc(Oc3cc(CN4CCC(P(C)(C)=O)CC4)cc(-c4cc(Cl)cc(Cl)c4)n3)cn2)CC1` [Example 331, (1-((2-(3,5-dichlorophenyl)-6-((2-(4-methylpiperazin-1-yl)pyrimidin-5-yl)oxy)pyridin-4-yl)methyl)piperidin-4-yl)dimethylphosphineoxide], the inhibition at 1 µM in the assay with Marburg virus (MARV) is 69.3%; with dengue virus (DENV), 56.5%; in assay [1], 22.6%.
As for `CC(=O)NCC1CCN(Cc2cc(Oc3cnc(N4CCN(CCCS(C)(=O)=O)CC4)nc3)nc(-c3cc(Cl)cc(Cl)c3)c2)CC1` [Example 259, N-((1-((2-(3,5-dichlorophenyl)-6-((2-(4-(3-(methylsulfonyl)propyl)piperazin-1-yl)pyrimidin-5-yl)oxy)pyridin-4-yl)methyl)piperidin-4-yl)methyl)acetamide], the inhibition at 1 µM with Marburg virus (MARV) came out at 67.2%; in the assay on dengue virus (DENV), 47%; in assay [1], 15%.
As for `CC(=O)N[C@H]1[C@@H]2CCN(Cc3cc(Oc4cnc(N5CCN(CCC(C)C(=O)O)CC5)nc4)nc(-c4cc(Cl)cc(Cl)c4)c3)CC[C@@H]21` (stereo partly drawn) [Example 82, 4-(4-(5-((4-(((1R,7S,8r)-8-acetamido-4-azabicyclo[5.1.0]octan-4-yl)methyl)-6-(3,5-dichlorophenyl)pyridin-2-yl)oxy)pyrimidin-2-yl)piperazin-1-yl)-2-methylbutanoic acid], the figures for the inhibition at 1 µM (with Marburg virus (MARV); with dengue virus (DENV); in assay [1]) were 53.2%, 19.8% and 18.4%, respectively.
As for `CN1CCN(c2ncc(Oc3cc(-c4cc(Cl)cc(Cl)c4)cc(CN4CCC(CC(=O)O)CC4)c3F)cn2)CC1` [Example 376, 2-(1-((3′,5′-dichloro-4-fluoro-5-((2-(4-methylpiperazin-1-yl)pyrimidin-5-yl)oxy)-[1,1′-biphenyl]-3-yl)methyl)piperidin-4-yl)acetic acid], the inhibition at 1 µM was 12.7% in the assay with Marburg virus (MARV), 0% in the assay on dengue virus (DENV) and 13.5% in assay [1].
Regarding `CC(C)N1CCN(c2cnc(Oc3cc(CN4CCC(CC(=O)O)CC4)cc(-c4cc(Cl)cc(Cl)c4)n3)cn2)CC1` [Example 347, 2-(1-((2-(3,5-dichlorophenyl)-6-((5-(4-isopropylpiperazin-1-yl)pyrazin-2-yl)oxy)pyridin-4-yl)methyl)piperidin-4-yl)acetic acid], the results for the inhibition at 1 µM (in the assay with Marburg virus (MARV); in the assay with dengue virus (DENV); in assay [1]) were 57.7%, 56.8% and 24.9%, respectively.
In the case of `CCC(CN1CCN(c2ccc(Oc3cc(CN4CCC(CNC(C)=O)CC4)cc(-c4cc(Cl)cc(Cl)c4)n3)cn2)CC1)C(=O)O` (stereo not drawn) [Example 288, 2-((4-(5-((4-((4-(acetamidomethyl)piperidin-1-yl)methyl)-6-(3,5-dichlorophenyl)pyridin-2-yl)oxy)pyridin-2-yl)piperazin-1-yl)methyl)butanoic acid], the inhibition at 1 µM in the assay on Marburg virus (MARV) worked out at 49.1%; with dengue virus (DENV) it was 52.2%; in assay [1] it was 28.2%.
For the compound `CC(=O)NCC1CCN(Cc2cc(Oc3ccc(N4CC[N+](CCO)(CCO)CC4)nc3)nc(-c3cc(Cl)cc(Cl)c3)c2)CC1` [Example 179, 4-(5-((4-((4-(acetamidomethyl)piperidin-1-yl)methyl)-6-(3,5-dichlorophenyl)pyridin-2-yl)oxy)pyridin-2-yl)-1,1-bis(2-hydroxyethyl) piperazin-1-ium], the inhibition at 1 µM was found to be 27.4% in the assay on Marburg virus (MARV), 42.1% in the assay on dengue virus (DENV) and 5.87% in assay [1].
On the same counts, the results for `CN1CCN(c2ncc(Oc3nc(-c4cc(Cl)cc(Cl)c4)cc(CN4CCC(CC(=O)O)CC4)c3F)cn2)CC1` [Example 379, 2-(1-((6-(3,5-dichlorophenyl)-3-fluoro-2-((2-(4-methylpiperazin-1-yl)pyrimidin-5-yl)oxy)pyridin-4-yl)methyl)piperidin-4-yl)acetic acid] are 51.2%, 35.2% and 41.5%.
On the same counts, the results for `NS(=O)(=O)CC1CCN(Cc2cc(Oc3ccc(N4CCN(CCC(=O)O)CC4)nc3)nc(-c3cc(Cl)cc(Cl)c3)c2)CC1` [Example 38, 3-(4-(5-((6-(3,5-dichlorophenyl)-4-((4-(sulfamoylmethyl)piperidin-1-yl)methyl)pyridin-2-yl)oxy)pyridin-2-yl)piperazin-1-yl)propanoic acid] are 50%, 14.2% and 39.1%.
On the same counts, the results for `COC(=O)NCC1(O)CCN(Cc2cc(Oc3ccc(N4CCNCC4)nc3)nc(-c3cc(Cl)cc(Cl)c3)c2)CC1` [Example 6, methyl ((1-((2-(3,5-dichlorophenyl)-6-((6-(piperazin-1-yl)pyridin-3-yl)oxy)pyridin-4-yl)methyl)-4-hydroxypiperidin-4-yl)methyl)carbamate] are 0%, 0% and 0%.
For `O=C(O)CC1CCN(Cc2cc(Oc3ccc(N4CCNCC4)nc3)nc(-c3cc(Cl)cc(Cl)c3)c2)CC1` [Example 4, 2-(1-((2-(3,5-dichlorophenyl)-6-((6-(piperazin-1-yl)pyridin-3-yl)oxy)pyridin-4-yl)methyl)piperidin-4-yl) acetic acid], the inhibition at 1 µM in the assay on Marburg virus (MARV) is 70.8%; in the assay with dengue virus (DENV), 16.6%; in assay [1], 18.4%.
In the case of `CN1CCN(c2ncc(Oc3cc(CN4CCC(OCC(=O)O)CC4)cc(-c4cc(Cl)cc(Cl)c4)n3)cn2)CC1` [Example 53, 2-((1-((2-(3,5-dichlorophenyl)-6-((2-(4-methylpiperazin-1-yl)pyrimidin-5-yl)oxy)pyridin-4-yl)methyl)piperidin-4-yl)oxy)acetic acid], the inhibition at 1 µM in the assay with Marburg virus (MARV) was 53.5%; in the assay with dengue virus (DENV) it was 42.5%; in assay [1], 30%.
`CN1CCN(c2ncc(Oc3cc(CN4CCC(CCB(O)O)CC4)cc(-c4cc(Cl)cc(Cl)c4)n3)cn2)CC1` [Example 323, (2-(1-((2-(3,5-dichlorophenyl)-6-((2-(4-methylpiperazin-1-yl)pyrimidin-5-yl)oxy)pyridin-4-yl)methyl)piperidin-4-yl)ethyl)boronic acid]: the inhibition at 1 µM with Marburg virus (MARV) amounted to 30.7%; with dengue virus (DENV), 0%; in assay [1], 5.87%.
As for `CC(=O)NCC1CCN(Cc2cc(Oc3ccc(N4CCCN(CCC(=O)O)CC4)nc3)nc(-c3cc(Cl)cc(Cl)c3)c2)CC1` [Example 190, 3-(4-(5-((4-((4-(acetamidomethyl)piperidin-1-yl)methyl)-6-(3,5-dichlorophenyl)pyridin-2-yl)oxy)pyridin-2-yl)-1,4-diazepan-1-yl)propanoic acid], the inhibition at 1 µM was found to be 44.8% in the assay on Marburg virus (MARV), 41.8% in the assay with dengue virus (DENV) and 2.11% in assay [1].
For the compound `CS(=O)(=O)CCCN1CCN(c2ccc(Oc3cc(CN4CCC(CC(=O)O)CC4)cc(-c4cc(Cl)cc(Cl)c4)n3)cn2)CC1` [Example 243, 2-(1-((2-(3,5-dichlorophenyl)-6-((6-(4-(3-(methylsulfonyl)propyl)piperazin-1-yl)pyridin-3-yl)oxy)pyridin-4-yl)methyl)piperidin-4-yl)acetic acid], the results for the inhibition at 1 µM (in the assay on Marburg virus (MARV); in the assay on dengue virus (DENV); in assay [1]) were 46.8%, 37.9% and 14.6%, respectively.
`CC(=O)NCC1CCN(Cc2cc(Oc3ccc(N4CCN(CCC(=O)O)C(C)(C)C4)nc3)nc(-c3cc(Cl)cc(Cl)c3)c2)CC1` [Example 191]: the inhibition at 1 µM with Marburg virus (MARV) was found to be 50.6%; with dengue virus (DENV) it was 71.2%; in assay [1], 14.2%.
On the same counts, the results for `O=C(O)CC1CCN(Cc2cc(Oc3cnc(N4CC5CCC(C4)N5)nc3)nc(-c3cc(Cl)cc(Cl)c3)c2)CC1` [Example 163, 2-(1-((2-((2-(3,8-diazabicyclo[3.2.1]octan-3-yl)pyrimidin-5-yl)oxy)-6-(3,5-dichlorophenyl)pyridin-4-yl)methyl)piperidin-4-yl)acetic acid] are 34.4%, 32.5% and 22%.
On the same counts, the results for `O=C(O)CC1CCN(Cc2cc(Oc3cnc(N4CCN(CC(O)CO)CC4)nc3)nc(-c3cc(Cl)cc(Cl)c3)c2)CC1` (stereo not drawn) [Example 177, 2-(1-((2-(3,5-dichlorophenyl)-6-((2-(4-(2,3-dihydroxypropyl)piperazin-1-yl)pyrimidin-5-yl)oxy)pyridin-4-yl)methyl)piperidin-4-yl)acetic acid] are 37%, 24% and 14.3%.
As for `CCN1CCN(c2ncc(Oc3cc(CN4CCC(CC(=O)O)CC4)cc(-c4cc(Cl)cc(Cl)c4)n3)cn2)CC1` [Example 234, 2-(1-((2-(3,5-dichlorophenyl)-6-((2-(4-ethylpiperazin-1-yl)pyrimidin-5-yl)oxy)pyridin-4-yl)methyl)piperidin-4-yl)acetic acid], the inhibition at 1 µM in the assay on Marburg virus (MARV) is 49.1%; in the assay on dengue virus (DENV), 36.9%; in assay [1], 26.7%.
